Experimental data as given in patent US12534472B2, “Morphic forms of trilaciclib and methods of manufacture thereof” (Pharmacosmos Holding A/S, priority 2020, dated 2026).

How the values were obtained:
Assay type in all cases: physicochemical
[1] = Dynamic Vapor Sorption (DVS); details: for Change in Mass (%)-ref Desorption / Change in Mass (%)-ref Sorption / Change in Mass (%)-ref Hysteresis: DVS; for Change in Mass (%)-ref Desorption / Change in Mass (%)-ref Sorption: 25° C.
Method: Approximately, 10-20 mg of sample was placed into a mesh vapor sorption balance pan and loaded into a DVS Intrinsic dynamic vapor sorption balance by Surface Measurement Systems. The sample was subjected to a ramping profile from 40-90% relative humidity (RH) at 10% increments, maintaining the sample at each step until a stable weight had been achieved (dm/dt 0.004%, minimum step length 30 minutes, maximum step length 500 minutes) at 25° C. After completion of the sorption cycle, the sample was dried using the same procedure to 0% RH and then a second sorption cycle back to 40% RH. Two cycles were performed. The weight change during the sorption/desorption cycles were plotted, allowing for the hygroscopic nature of the sample to be determined. XRPD analysis was then carried out on any solid retained. The above technique was used to generate the images in FIG. 5, FIG. 6, FIG. 47 and FIG. 48.

[2] = Thermodynamic solubility in water at pH 4.2
Method: Thermodynamic solubility was carried out for Pattern 1, Pattern 2/6 mixture, Pattern 3, amorphous di-HCl salts and Pattern 7 in water at pH 4.2. All samples were prepared at 30 mg/mL. Initial observations were made. The samples were agitated at ambient temperature for ca. 24 hours. The samples were collected and observations made. Observed solids were isolated via centrifugation. The mother liquor from the filtered sample was analyzed by HPLC. The pH 4.3 solution was prepared by diluting glacial acetic acid (11.6 mL) to 100 mL in deionized water, then adding sodium acetate (1.07 g) and acetic acid solution (5.9 mL) preparing up to 500 mL with deionized water; then the pH was adjusted to 4.2. The above technique was used to generate the images in FIG. 60.

[3] = Dynamic Vapor Sorption (DVS); details: Cycle 3, sorption, 25° C.

SMILES: CN1CCN(c2ccc(Nc3ncc4cc5n(c4n3)C3(CCCCC3)CNC5=O)nc2)CC1 [Pattern 3, 2′-((5-(4-methylpiperazin-1-yl)pyridin-2-yl)amino)-7′,8′-dihydro-6′H-spiro[cyclohexane-1,9′-pyrazino[1′,2′:1,5]pyrrolo[2,3-d]pyrimidin]-6′-one]
- Change in Mass (%)-ref Desorption ([1]; Cycle 1, desorption, target RH 0%): 0.000%
- Change in Mass (%)-ref Desorption ([1]; Cycle 1, desorption, target RH 10%): 0.863%
- Change in Mass (%)-ref Desorption ([1]; Cycle 1, desorption, target RH 20%): 1.274%
- Change in Mass (%)-ref Desorption ([1]; Cycle 1, desorption, target RH 30%): 1.818%
- Change in Mass (%)-ref Desorption ([1]; Cycle 1, desorption, target RH 40%): 2.223%
- Change in Mass (%)-ref Desorption ([1]; Cycle 1, desorption, target RH 50%): 2.491%
- Change in Mass (%)-ref Desorption ([1]; Cycle 1, desorption, target RH 60%): 2.727%
- Change in Mass (%)-ref Desorption ([1]; Cycle 1, desorption, target RH 70%): 2.940%
- Change in Mass (%)-ref Desorption ([1]; Cycle 1, desorption, target RH 80%): 3.171%
- Change in Mass (%)-ref Desorption ([1]; Cycle 1, desorption, target RH 90%): 3.555%
- Change in Mass (%)-ref Sorption ([1]; Cycle 1, sorption, target RH 40%): 2.516%
- Change in Mass (%)-ref Sorption ([1]; Cycle 1, sorption, target RH 50%): 2.780%
- Change in Mass (%)-ref Sorption ([1]; Cycle 1, sorption, target RH 60%): 2.970%
- Change in Mass (%)-ref Sorption ([1]; Cycle 1, sorption, target RH 70%): 3.115%
- Change in Mass (%)-ref Sorption ([1]; Cycle 1, sorption, target RH 80%): 3.288%
- Change in Mass (%)-ref Sorption ([1]; Cycle 1, sorption, target RH 90%): 3.555%
- Change in Mass (%)-ref Hysteresis ([1]; Cycle 1, target RH 40%): −0.292%
- Change in Mass (%)-ref Hysteresis ([1]; Cycle 1, target RH 50%): −0.289%
- Change in Mass (%)-ref Hysteresis ([1]; Cycle 1, target RH 60%): −0.242%
- Change in Mass (%)-ref Hysteresis ([1]; Cycle 1, target RH 70%): −0.175%
- Change in Mass (%)-ref Hysteresis ([1]; Cycle 1, target RH 80%): −0.117%
- Change in Mass (%)-ref Desorption ([1]; Cycle 2, desorption, target RH 0%): 0.075%
- Change in Mass (%)-ref Desorption ([1]; Cycle 2, desorption, target RH 10%): 0.885%
- Change in Mass (%)-ref Desorption ([1]; Cycle 2, desorption, target RH 20%): 1.290%
- Change in Mass (%)-ref Desorption ([1]; Cycle 2, desorption, target RH 30%): 1.711%
- Change in Mass (%)-ref Desorption ([1]; Cycle 2, desorption, target RH 40%): 1.977%
- Change in Mass (%)-ref Desorption ([1]; Cycle 2, desorption, target RH 50%): 2.171%
- Change in Mass (%)-ref Desorption ([1]; Cycle 2, desorption, target RH 60%): 2.337%
- Change in Mass (%)-ref Desorption ([1]; Cycle 2, desorption, target RH 70%): 2.510%
- Change in Mass (%)-ref Desorption ([1]; Cycle 2, desorption, target RH 80%): 2.717%
- Change in Mass (%)-ref Desorption ([1]; Cycle 2, desorption, target RH 90%): 3.093%
- Change in Mass (%)-ref Sorption ([1]; Cycle 2, sorption, target RH 0%): 0.000%
- Change in Mass (%)-ref Sorption ([1]; Cycle 2, sorption, target RH 10%): 0.831%
- Change in Mass (%)-ref Sorption ([1]; Cycle 2, sorption, target RH 20%): 1.198%
- Change in Mass (%)-ref Sorption ([1]; Cycle 2, sorption, target RH 30%): 1.468%
- Change in Mass (%)-ref Sorption ([1]; Cycle 2, sorption, target RH 40%): 1.853%
- Change in Mass (%)-ref Sorption ([1]; Cycle 2, sorption, target RH 50%): 2.092%
- Change in Mass (%)-ref Sorption ([1]; Cycle 2, sorption, target RH 60%): 2.271%
- Change in Mass (%)-ref Sorption ([1]; Cycle 2, sorption, target RH 70%): 2.461%
- Change in Mass (%)-ref Sorption ([1]; Cycle 2, sorption, target RH 80%): 2.700%
- Change in Mass (%)-ref Sorption ([1]; Cycle 2, sorption, target RH 90%): 3.093%
- Change in Mass (%)-ref Hysteresis ([1]; Cycle 2, target RH 10%): 0.054%
- Change in Mass (%)-ref Hysteresis ([1]; Cycle 2, target RH 20%): 0.091%
- Change in Mass (%)-ref Hysteresis ([1]; Cycle 2, target RH 30%): 0.243%
- Change in Mass (%)-ref Hysteresis ([1]; Cycle 2, target RH 40%): 0.124%
- Change in Mass (%)-ref Hysteresis ([1]; Cycle 2, target RH 50%): 0.080%
- Change in Mass (%)-ref Hysteresis ([1]; Cycle 2, target RH 60%): 0.066%
- Change in Mass (%)-ref Hysteresis ([1]; Cycle 2, target RH 70%): 0.050%
- Change in Mass (%)-ref Hysteresis ([1]; Cycle 2, target RH 80%): 0.018%
- Change in Mass (%)-ref Sorption ([1]; Cycle 3, sorption, target RH 10%): 0.861%
- Change in Mass (%)-ref Sorption ([1]; Cycle 3, sorption, target RH 20%): 1.198%
- Change in Mass (%)-ref Sorption ([1]; Cycle 3, sorption, target RH 40%): 1.757%
- moisture adsorbed (DVS) ([1]; at 40% RH, listed as Pattern 3 scale-up): 2.5 wt %
- moisture adsorbed (DVS) ([1]; at 60% RH): 3.1 wt %
- mass increase by DVS ([1]; at 90% RH): ca. 4%
- moisture adsorbed (DVS) ([1]; at 90% RH, listed as Pattern 3 scale-up): 3.5 wt %
- mass increase by DVS ([1]; between 0% and 90% RH): 4%
- Observations at T = 24 hours ([2]; 30 mg/mL in water at pH 4.2, agitated at ambient temperature ca. 24 hours): Yellow solution
- Observations at T = 0 hours ([2]; 30 mg/mL in water at pH 4.2, ambient temperature, T = 0 hours): Yellow solution (dissolved
- Change in Mass (%)-ref Sorption ([3]; target RH 0%): 0.075%
- Change in Mass (%)-ref Sorption ([3]; target RH 30%): 1.443%
